“And” between values parts separate entries of the source, which are not always exact repeats. Equal values may be shown once.
How the values were obtained:
COS-7 cells = experiment: Co-transfection with MSLN ORF construct, western blot; format: cell-based; details: COS-7 cells co-transfected with WT MSLN plasmid and miR-198 precursors
Excerpt: A MSLN ORF clone was purchased from Origene (RC202532). Site-directed mutagenesis was used to generate constructs containing silent mutations in each of the three predicted miR-198 binding sites within the CDS of the MSLN gene (FIG. 13). MiR-198 precursors or a scrambled miRNA control were co-transfected into COS-7 cells along with either the WT MSLN ORF construct or each of the single, double, or triple mutants. Cell lysates were collected for western blot analysis. RNA and miRNA were collected for real-time RT-PCR analysis.

MIA-MSLN cells [1] = experiment: Apoptosis assay (TUNEL, caspase 3 western) after TNF-α; format: cell-based, human
Method: (§1) Apoptosis induction was determined using western blotting for Caspase 3 cleavage and confirmed by labeling DNA breaks using a terminal deoxynucleotidyltransferase dUTP nick end labeling (TUNEL) assay with the APO-DIRECT Kit (BD Biosciences) following 96 h of treatment (24 h serum starvation followed by 72 h of treatment with 20 ng/ml of TNF-α). Briefly, cells were plated in either 10% FBS media or serum-starved for 96 h, at which time 1×10^6 cells were harvested using trypsin-EDTA. After centrifugation, the pellets were washed twice with PBS, then resuspended in 1% paraformaldehyde in PBS and incubated on ice for 45 minutes. After several washes, the cell pellet again was resuspended in PBS/ethanol, incubated on ice for 30 minutes, and stored at −20° C. Cell samples were then pelleted, washed, and resuspended in 50 μL of DNA labeling solution containing a reaction buffer, terminal deoxynucleotidyl transferase enzyme, FITC-labeled deoxyuridine triphosphate nucleotides, and distilled water. After a 60-minute incubation at 37° C., cells were again washed, pelleted, and resuspended in 500 μl of propidium iodine/RNase staining buffer. Samples were then analyzed by flow cytometry (fluorescence-activated cell sorting) using a FACSCalibur (Becton Dickinson, Franklin Lakes, NJ). Data was further analyzed using the software FLOWJOW ver. 6.1.1 (Tree Star Inc.).

MIA-V cells = experiment: Apoptosis assay (TUNEL) after TNF-α; format: cell-based, human; details: TUNEL after TNF-α treatment
Method: as §1

AsPC1 cells [2] = experiment: Apoptosis assay (TUNEL) after TNF-α; format: cell-based, human; details: AsPC1-miR-198 cells, TUNEL after TNF-α treatment
Method: as §1

MSLN CDS = experiment: Dual-luciferase reporter assay, MSLN CDS constructs; format: cell-based, human; details: in the presence of miR-198
Excerpt: For MSLN, six constructs were generated: 400 or 600 bp segments containing the WT sequence or specific 3-nucleotide mutations in the seed region of each miR-198 binding site were synthesized by GenScript and subcloned into the pEZX-MT01 3′UTR construct from Genecopoeia at Xba1 and BamH1 restriction sites such that they were inserted after the luciferase gene (FIG. 10). The same process was used for the VCP reporter constructs containing the full-length VCP 3′UTR (FIG. 10).
Dual luciferase assays were performed according to the manufacturer's instruction. Luciferase expression analysis was performed at 24 h using the Dual-luciferase kit (Promega) and Sirius Luminometer (Berthold Detection System). Results are presented as the ratio of firefly to Renilla luciferase activities, normalized to controls.

MIA-MSLN cells [3] = experiment: Invasion assay across Matrigel; format: cell-based, human; details: 36 h after miR-198 precursor transfection
Method: (§2) Cell migration was determined with a modified Boyden chamber assay as described previously (Li et al., 2008). For invasion assays, Matrigel basement membrane matrix (BD Biosciences) was used by adding 100 ul of 1 mg/ml Matrigel to the migration chamber inserts prior to plating of the cells (Li et al., 2008, Bharadwaj).
An invasion assay was performed as described for the migration assay. For invasion, Matrigel basement membrane matrix (BD Biosciences) was used by adding 100 μl of 1 mg/ml Matrigel to the migration chamber inserts prior to plating of the cells.

MIA-MSLN cells [4] = experiment: Migration, modified Boyden chamber assay; format: cell-based, human
Method: as §2

AsPC1 cells [5] = experiment: Migration, modified Boyden chamber assay; format: cell-based, human; details: stable miR-198 overexpression in AsPC1 cells, FIG. 14D
Method: as §2

MIA-MSLN cells [6] = experiment: Anchorage independent growth assay in soft agar; format: cell-based, human; details: MIA-MSLN-miR-198 vs MIA-MSLN, 15 days, ImageJ
Method: A soft agar assay for colony formation was performed by coating 35 mm dishes with a combination of 0.5% base agar and 0.7% top agar. Base agar preparation: 1% LMP Agarose (DNA grade) (Baylor College of Medicine) was melted in 1× incomplete DMEM, microwaved, and cooled to 40° C. in a water bath. Equal volumes of 20% FBS DMEM pre-warmed to 40° C. in water bath were mixed to give 0.5% Agar+10% DMEM, of which 1.5 ml/35 m Petri dish was added and allowed to set at room temperature.
Top agar preparation: 0.7% LMP Agarose (DNA grade) in 1×DMEM was prepared in the same manner as above. Cells were trypsinized and diluted to 0.1×10^6 cells/ml, in the 20% FBS DMEM; 5,000 cells/dish were plated in duplicate. The plates were then incubated at 37° C. in a humidified incubator for 15 days. Following incubation, the plates were stained with 0.5 ml of 1% MTT for 2 h, and colonies were photographed using a dissecting microscope. Images were analyzed using IMAGEJ software.

HPDE cells = experiment: Migration assay; format: cell-based; details: 72 h
Method: as §2

MIA-MSLN cells [7] = experiment: Subcutaneous pancreatic cancer mouse model; format: in vivo, nude mice
Method: All animal procedures were conducted under the guidelines approved by the Institutional Animal Care and Use Committee (IACUC). Cells (3×10^6) were inoculated into the right flank (s.c. model) or into the pancreas (orthotopic model) of 5 to 6-week-old male nude mice (NCI-Charles River) as previously described (Li et al., 2007). Tumor size was measured using a digital caliper and tumor volume was determined with the following formula: tumor volume (mm^3)=[length (mm)]×[width (mm)]2×0.52. For the orthotopic model, after 4 weeks all surviving mice were euthanized and evaluated macroscopically for the presence of orthotopic tumor and metastases in the abdominal cavity. Tumor spread was further visualized using a fluorescent filter to view GFP expression. The tumor nodules were explanted, counted, and weighed. Tumor tissues were stored in RNAse Later solution (Ambion) in −80° for subsequent RNA/miRNA isolation and analysis.

Substance: miR-198: microRNA-198, SEQ ID NO: 1 gguccagaggggagauagg; used as transfected precursors (Ambion) or Lenti-miR stable overexpression (GGUCCAGAGGGGAGAUAGG; listed as RNA, chemistry not given here; listed as Homo sapiens)
- expression of WT MSLN protein (COS-7 cells): abolished expression of the WT MSLN protein
- increase in number of cells undergoing apoptosis over controls (MIA-MSLN cells [1]; MIA-MSLN-miR-198 cells, TUNEL after TNF-α treatment): > 60%
- caspase 3 cleavage (MIA-MSLN cells [1]; overexpression of miR-198 in MIA-MSLN cells, western blot): results in caspase 3 cleavage
- apoptotic cells (MIA-V cells): ~75%
- increase in number of cells undergoing apoptosis over controls (AsPC1 cells [2]): > 90%
- decrease in firefly luciferase expression, MSLN CDS site 2 WT construct (MSLN CDS): almost completely
- decrease in firefly luciferase expression, MSLN CDS site 3 WT construct (MSLN CDS): ~70%
- decrease in firefly luciferase expression, MSLN CDS site 1 construct (MSLN CDS; not statistically significant): slight reduction
- invasion reduced (MIA-MSLN cells [3]): 24%
- migration reduced (MIA-MSLN cells [4]; 36 h after transient miR-198 transfection): 44%
- migration reduced (MIA-MSLN cells [4]; stable miR-198 overexpression, after 48 h): ~40%
- migration reduced (AsPC1 cells [5]): 33%
- migration reduced (AsPC1 cells [5]; listed as MiR-198): > 50%
- reduction in mean threshold intensity of soft agar colonies (MIA-MSLN cells [6]): ~20 fold
- migration (HPDE cells): did not seem to have an effect
- mice that developed tumors (MIA-MSLN cells [7]; s.c. MIA-MSLN-miR-198 cells): 3 of 9
- average tumor volume (MIA-MSLN cells [7]; s.c. MIA-MSLN-miR-198 cells, day 45 post injection, the three mice with tumors): 37 mm^3 and 36 mm^3
- mice with no signs of tumor development (MIA-MSLN cells [7]; s.c. miR-198 overexpressing cells, tumor-free for 45 days): 6/9
- first measurable tumors (MIA-MSLN cells [7]; s.c., the three mice that presented small tumors): 35 day post injection

— patent publication US12134769B2, “MicroRNA-198 as a tumor suppressor in ovarian cancer” (Baylor College of Medicine, priority 2011, dated 2024)
